Assay results as given in US4720506A, “Immunomodulating agent” (Nippon Shinyaku Company, Limited, priority 1982, dated 1988).

How the values were obtained:
[1] = tested on: Methylated Human Albumin induced Delayed Type Hypersensitivity; assay: Methylated human albumin induced delayed type hypersensitivity (footpad swelling); format: in vivo, mice (C3H); details: 4 days; for response vs control in vivo at 100 mg/kg / response vs control in vivo at 30 mg/kg / response vs control in vivo at 300 mg/kg: Mus musculus, 96 h
Protocol: Effect on Methylated Human Albumin induced Delayed Type Hypersensitivity
The medicament was administered orally for continuous 4 days including the immunization-day. On the 4th day from the immunization day, 25 μl of 0.1% methylated human albumin aqueous solution was subcutaneously injected to the footpad. After 24 hours, the thickness of the left and right footpad were measured, and the footpad swelling due to the delayed type hypersensitivity was represented as the difference between the thickness of the left and right footpad. The footpad swelling of the medicament-administration group was compared with that of physiological saline solution-administration group.

[2] = tested on: Sheep Erythrocytes induced Delayed Type Hypersensitivity; assay: Sheep erythrocytes induced delayed type hypersensitivity (footpad swelling); format: in vivo, mice (ddY); details: Table 4, oral, 4 days, 24 hours after challenge
Protocol: Effect on Sheep Erythrocytes induced Delayed Type Hypersensitivity
40 μl of Sheep erythrocytes adjusted to the concentration of 1×10^7 /40 μl was subcutaneously injected to the right footpad of mice (ddY weighing 25-30 g) and the medicament was administered orally for continuous 4 days including the day, on which sheep erythrocytes were administered.
On the 4th day from the administration day of sheep erythrocytes, 40 μl of sheep erythrocytes adjusted to the concentration of 5×10^8 /40 μl was subcutaneously injected to the left footpad. After 24 hours, both of the thickness of the right and left footpad were measured. Footpad swelling due to the delayed type hypersensitivity was recognized as the difference between the thickness of the left and right footpad. The footpad swelling of the medicament-administration group was compared with that of physiological saline solution-administration group (control group).

mice = assay: Acute toxicity in mice; format: in vivo; details: 7th day
Protocol: The medicament was suspended in 3% "Tween-80" and the suspension was administered orally or intraperitonealy at a dose shown in Table 1 to mice (ddY weighing 20-25 g).

[3] = tested on: Plaque-Forming Cells in Spleen against Sheep Erythrocytes; assay: Plaque-forming cells in spleen against sheep erythrocytes in mice; format: in vivo, mice (Balb/c); details: oral, 4 days; for PFC, % Control: vs physiological saline
Protocol: Effect on Plaque-forming Cells in Spleen against Sheep Erythrocytes in mice
Balb/c mice of 5 weeks old were intravenously immunized with 1×10^8 sheep erythrocytes/mouse. 5 mice were used per group. Medicament was orally administered for 4 days from the day when the mice were immunized. Mice were sacrificed on the 5th day and the numbers of plaque-forming cells (PFC) in the spleen against sheep erythrocytes were determined by Fujiwara's modified method of Cunningham's method ["Method in Immunological Experiment A" edited by Japanese Society for Immunology, page 1272 (1974)].

Row | Structure (SMILES) | Footpad swelling, mean value ± standard error ([1]; Experiment 2, oral, 100 mg/kg) [× 0.01 mm] | % Control of footpad swelling ([2]; 100 mg/kg) [%] | Mortality (mice; intraperitoneal, 1,000 mg/kg) | Mortality (mice; oral, 5,000 mg/kg) | Footpad swelling, mean value ± standard error ([1]; Experiment 1, oral, 300 mg/kg) [× 0.01 mm] | response vs control in vivo at 300 mg/kg ([1]; po, Experiment 1, 300 mg/kg) [%] | Footpad swelling, mean value ± standard error ([1]; Experiment 2, oral, 30 mg/kg) [× 0.01 mm] | Footpad swelling, mean value ± standard error ([1]; Experiment 2, oral, 300 mg/kg) [× 0.01 mm] | response vs control in vivo at 30 mg/kg ([1]; po, Experiment 2, 30 mg/kg) [%] | response vs control in vivo at 100 mg/kg ([1]; po, Experiment 2, 100 mg/kg) [%] | response vs control in vivo at 300 mg/kg ([1]; po, Experiment 2, 300 mg/kg) [%] | also measured
1 | Cn1cnc([N+](=O)[O-])c1Sc1ncnc2nc[nH]c12 [Azathioprine, reference compound] | 41.4 ± 1.5 | 49.0 |  |  |  |  |  |  |  |  |  | response vs control in vivo at 100 mg/kg ([1]; Experiment 2, oral, 100 mg/kg): 70.9%
2 | CCOC(=O)Cc1ccc(NC(=O)C(C)C)cc1 [Compound 6, Ethyl 4-(isobutyrylamino)phenylacetate] |  |  | 0/5 | 1/5 | 56.8 ± 2.2 | 89.7 |  |  |  |  |  | Footpad swelling, mean value ± standard error ([1]; Experiment 1, oral, 30 mg/kg): 59.0 ± 1.8 × 0.01 mm; Footpad swelling, mean value ± standard error ([1]; Experiment 1, oral, 100 mg/kg): 55.6 ± 1.2 × 0.01 mm; response vs control in vivo at 30 mg/kg ([1]; po, Experiment 1, 30 mg/kg): 93.2%; response vs control in vivo at 100 mg/kg ([1]; po, Experiment 1, 100 mg/kg): 87.8%
3 | CC(=O)Nc1ccc(CC(=O)O)cc1 [Compound 10, 4-Acetylaminophenylacetate] | 41.8 ± 2.5 | 85.7 | 0/5 | 0/5 | 44.5 ± 1.6 | 70.3 | 46.1 ± 1.7 | 42.3 ± 1.8 | 78.9 | 71.6 | 72.4 | PFC, mean value ± standard error ([3]; Table 2, 30 mg/kg): 116.4 ± 8.64 × 2,500/spleen; PFC, % Control ([3]; Table 2, 30 mg/kg): 181%; PFC, mean value ± standard error ([3]; Table 2, 100 mg/kg): 107.2 ± 10.5 × 2,500/spleen; PFC, % Control ([3]; Table 2, 100 mg/kg): 167%; PFC, mean value ± standard error ([3]; Table 2, 300 mg/kg): 82.2 ± 7.0 × 2,500/spleen; PFC, % Control ([3]; Table 2, 300 mg/kg): 128%; % Control of footpad swelling ([2]; 30 mg/kg): 77.0%; % Control of footpad swelling ([2]; 300 mg/kg): 71.6%
4 | CC(=O)Nc1ccc(C(C)C(=O)O)cc1 (stereo not drawn) [Compound 12, 2-(4-Acetylaminophenyl)propionic acid] | 52.1 ± 1.5 |  | 0/5 | 0/5 |  |  | 54.5 ± 1.7 | 52.4 ± 1.9 | 93.2 | 89.2 | 89.7 | 
5 | Cc1ccc(C(=O)Nc2ccc(CC(=O)O)cc2)cc1 [Compound 15, 4-(4-Methylbenzoylamino)phenylacetic acid] |  |  | 5/5 | 5/5 | 57.4 ± 1.5 | 90.7 |  |  |  |  |  | Mortality (mice; intraperitoneal, 300 mg/kg): 0/5; Mortality (mice; oral, 1,000 mg/kg): 0/5; Footpad swelling, mean value ± standard error ([1]; Experiment 1, oral, 30 mg/kg): 54.2 ± 1.7 × 0.01 mm; Footpad swelling, mean value ± standard error ([1]; Experiment 1, oral, 100 mg/kg): 56.7 ± 1.8 × 0.01 mm; response vs control in vivo at 30 mg/kg ([1]; po, Experiment 1, 30 mg/kg): 85.6%; response vs control in vivo at 100 mg/kg ([1]; po, Experiment 1, 100 mg/kg): 89.6%
6 | CCOC(=O)C(C)c1ccc(NC(C)=O)cc1 (stereo not drawn) [Compound 9, Ethyl 2-(4-acetylaminophenyl)propionate] | 55.3 ± 2.0 |  | 0/5 |  |  |  | 51.4 ± 1.8 | 56.0 ± 2.0 | 88 | 94.7 | 95.9 | Mortality (mice; oral, 1,500 mg/kg): 0/5
7 | CC(C)C(=O)Nc1ccc(CC(=O)O)cc1 [Compound 13] |  |  | 1/5 | 0/5 | 58.5 ± 2.4 | 92.4 |  |  |  |  |  | Footpad swelling, mean value ± standard error ([1]; Experiment 1, oral, 30 mg/kg): 57.2 ± 1.9 × 0.01 mm; Footpad swelling, mean value ± standard error ([1]; Experiment 1, oral, 100 mg/kg): 58.2 ± 1.9 × 0.01 mm; response vs control in vivo at 30 mg/kg ([1]; po, Experiment 1, 30 mg/kg): 90.4%; response vs control in vivo at 100 mg/kg ([1]; po, Experiment 1, 100 mg/kg): 91.9%
8 | CCOC(=O)Cc1ccc(N)cc1 [Compound 1, Ethyl p-aminophenylacetate] |  | 85.9 | 1/5 |  |  |  |  |  |  |  |  | Mortality (mice; oral, 3,000 mg/kg): 0/5; PFC, mean value ± standard error ([3]; Table 3, 30 mg/kg): 89.4 ± 10.4 × 3,125/spleen; PFC, % Control ([3]; Table 3, 30 mg/kg): 135%; PFC, mean value ± standard error ([3]; Table 3, 100 mg/kg): 60.6 ± 8.6 × 3,125/spleen; PFC, % Control ([3]; Table 3, 100 mg/kg): 91%; PFC, mean value ± standard error ([3]; Table 3, 300 mg/kg): 82.0 ± 5.2 × 3,125/spleen; PFC, % Control ([3]; Table 3, 300 mg/kg): 123%; % Control of footpad swelling ([2]; 30 mg/kg): 79.8%; % Control of footpad swelling ([2]; 300 mg/kg): 77.9%
9 | CCCC(=O)Nc1ccc(CC(=O)O)cc1 [Compound 14, 4-n-Butyrylaminophenylacetic acid] | 51.8 ± 1.4 |  | 0/5 |  |  |  | 50.9 ± 2.0 | 56.7 ± 1.5 | 87.2 | 88.7 | 97.1 | 
10 | CC(=O)Nc1ccc(C(C)(C)C(=O)O)cc1 [Compound 11, 2-(4-Acetylaminophenyl)-2-methylpropionic acid] | 55.4 ± 1.8 |  | 0/5 | 0/5 |  |  | 54.5 ± 1.7 | 51.3 ± 2.3 | 93.3 | 94.9 | 87.8 | 
11 | CCOC(=O)Cc1ccc(NC(C)=O)cc1 [Compound 4, Ethyl 4-acetylaminophenylacetate] |  | 93.8 |  |  |  |  |  |  |  |  |  | Footpad swelling, mean value ± standard error ([1]; Experiment 3, oral, 30 mg/kg): 48.3 ± 2.6 × 0.01 mm; Footpad swelling, mean value ± standard error ([1]; Experiment 3, oral, 100 mg/kg): 49.4 ± 3.5 × 0.01 mm; Footpad swelling, mean value ± standard error ([1]; Experiment 3, oral, 300 mg/kg): 56.5 ± 2.9 × 0.01 mm; response vs control in vivo at 30 mg/kg ([1]; po, Experiment 3, 30 mg/kg): 75.5%; response vs control in vivo at 100 mg/kg ([1]; po, Experiment 3, 100 mg/kg): 77.2%; response vs control in vivo at 300 mg/kg ([1]; po, Experiment 3, 300 mg/kg): 88.3%; % Control of footpad swelling ([2]; 30 mg/kg): 91.5%; % Control of footpad swelling ([2]; 300 mg/kg): 68.4%
